These antisense oligonucleotides have a phosphorothioate backbone; sugars and methylation of C are not fully specified.
Also: test concentration or dose not given here.

One series deals with NCOA2. The following applies: ASO.
Regarding AAAACTGACTGGGTGGGA, the remaining target (mRNA or protein) (fraction of control) is ≥ 1.
Sequence AACCACCAAACCTGCCCA returned a remaining target (mRNA or protein) (fraction of control) of 0.42.
As to AAGCCAACGATGACCCTA, the remaining target (mRNA or protein) (fraction of control) turned out to be 0.2.
As for ACTCATCTTGAACACATA, the remaining target (mRNA or protein) (fraction of control) was ≥ 1.
AGAACTGGTCTTTCCTTC yielded a remaining target (mRNA or protein) (fraction of control) of 0.92.
In turn, AGGGTTGCTCATAGTTGC displayed a remaining target (mRNA or protein) (fraction of control) of 0.61.
Still for that read-out and setting: then ATCGGCTCGGGTCGGTCA, with 0.38; and ATTCTCTTTCTTCTTGGG, with 0.71; and CAGCAATATTTCCGTGTT, with 0.88.
With CATCCCACTCATCTTGAA, the remaining target (mRNA or protein) (fraction of control) is ≥ 1.
Sequence CATTTACTATAGACTTTG had a remaining target (mRNA or protein) (fraction of control) of 0.79.
As for CCAACATGCAAGATGCTA, the remaining target (mRNA or protein) (fraction of control) turned out to be 0.83.
CCAAGTTGGTCAGGACAT: the remaining target (mRNA or protein) (fraction of control) was ≥ 1.
On the same count and under the same terms, then CCCTAAATTTCCTTGGTT, with 0.82.
As to CTATTAATTTTGTGTTAC, the remaining target (mRNA or protein) (fraction of control) is ≥ 1.
In the case of CTCTGTGAAATTCGCAGT, the remaining target (mRNA or protein) (fraction of control) was ≥ 1.
On to CTGCGCATGGAACTTCTG, for which the remaining target (mRNA or protein) (fraction of control) came out at 0.45.
Sequence CTGGCTTCAGCAGTGTCA showed a remaining target (mRNA or protein) (fraction of control) of 0.72.
In the case of CTGTCAACATTTACTTGG, the remaining target (mRNA or protein) (fraction of control) was ≥ 1.
Take GAAGCATATGTAAAGATA: the remaining target (mRNA or protein) (fraction of control) was ≥ 1.
For the sequence GACGCCACCCTGGGAACC, the remaining target (mRNA or protein) (fraction of control) stood at 0.74.
Turning to GAGAGACAGCGAAGCACT, the remaining target (mRNA or protein) (fraction of control) was found to be 0.29.
In the case of GCAAGCTACCTGTGGAGT, the remaining target (mRNA or protein) (fraction of control) came to 0.5.
In the case of GCTGGGTTGGCCTGAGAC, the remaining target (mRNA or protein) (fraction of control) was ≥ 1.
GCTGTGCTTGGAGGCGAT returned a remaining target (mRNA or protein) (fraction of control) of 0.43.
For the sequence GGACATAGCAAGTCATCT, the remaining target (mRNA or protein) (fraction of control) worked out at 0.62.
GGATTTCCCTCTGTCTCT: the remaining target (mRNA or protein) (fraction of control) was determined as 0.32.
In turn, GGCCCCAGCGCATCCTTG yielded a remaining target (mRNA or protein) (fraction of control) of 0.45.
Sequence GGGAAAAGCTGTGGTAAT registered a remaining target (mRNA or protein) (fraction of control) of 0.79.
With GTAGGCACGGAGGTCACT, the remaining target (mRNA or protein) (fraction of control) was ≥ 1.
Sequence GTTATACCTTAGATACTG displayed a remaining target (mRNA or protein) (fraction of control) of 0.84.
Take TCAGCAGTGTCAGCAATA: the remaining target (mRNA or protein) (fraction of control) is ≥ 1.
The sequence TCTGCCCTTTGCTGTCAT gave a remaining target (mRNA or protein) (fraction of control) of 0.59.
For TGCACATTTGTCAGGTTT, the remaining target (mRNA or protein) (fraction of control) amounted to 0.18.
In the case of TGCACTTCATCTATGTTG, the remaining target (mRNA or protein) (fraction of control) came out at 0.5.
TGCCTTCCAGGTTCACTA yielded a remaining target (mRNA or protein) (fraction of control) of 0.99.
As for TGCTGTGGGAAAACGGGC, the remaining target (mRNA or protein) (fraction of control) stood at 0.43.
The sequence TTCATGGCACTGGTGGTA showed a remaining target (mRNA or protein) (fraction of control) of 0.85.
Still for that read-out and setting: for TTCTGAATCAGGTAAAGG the value was ≥ 1; for TTTCTCCCATCCCACTCA, 0.87.

The target of a further series is CHEK2. The following applies: ASO.
Turning to AAACTTTCTCTTCATGTCTT, the remaining target (mRNA or protein) (fraction of control) was ≥ 1.
The sequence AACATCCGACTCCCGAGACA yielded a remaining target (mRNA or protein) (fraction of control) of 0.65.
The sequence AACTTCTTGACAAGGTCCAG showed a remaining target (mRNA or protein) (fraction of control) of 0.8.
As for AAGGCTTCTTCTGTCGTAAA, the remaining target (mRNA or protein) (fraction of control) was determined as 0.96.
As for AAGGGCCCATAATCGAGCCC, the remaining target (mRNA or protein) (fraction of control) was found to be 0.78.
In the case of AATCCGAAAGTGTTTCTTGC, the remaining target (mRNA or protein) (fraction of control) is ≥ 1.
Same read-out and setting: then AGAATAACTCCTAAACTCCA, with 0.82.
For the sequence AGCAGTCCCAACAGAAACAA, the remaining target (mRNA or protein) (fraction of control) turned out to be 0.95.
Still for that read-out and setting: then AGGAATAGAATAGAGTTCCT, with ≥ 1; and ATTCTCTGGCTTTAAGTCAC, with 0.63.

Another series has as its target MAP4K4. The following applies: ASO.
In the case of CCATCCAAGTGACCAGTTTC, the remaining target (mRNA or protein) (fraction of control) turned out to be 0.29.
Regarding CCGCTTCTGTCTCTCTGCCA, the remaining target (mRNA or protein) (fraction of control) came out at 0.25.
In turn, CCTCATCTTCATAGCACACC yielded a remaining target (mRNA or protein) (fraction of control) of 0.82.
With CCTCTCCTCTTCTTCTTTGC, the remaining target (mRNA or protein) (fraction of control) was found to be 0.64.
As for CCTGCCTGGCTATTCTGCTG, the remaining target (mRNA or protein) (fraction of control) turned out to be 0.43.
In turn, CCTGCTGCAGTCTCAGGAAA yielded a remaining target (mRNA or protein) (fraction of control) of 0.37.
Sequence CCTTGATATCCCGGTGAATC returned a remaining target (mRNA or protein) (fraction of control) of 0.23.
CTCTGCAGGGCGGGATGCAC: the remaining target (mRNA or protein) (fraction of control) was ≥ 1.
Sequence CTTCCTCTTCATCCTCAGTG had a remaining target (mRNA or protein) (fraction of control) of 0.34.
Still for that read-out and setting: for GAACCATCTGCACATGATTT the value was 0.48; for GACTGAGTCTGGCGGACGAT, 0.84.
Turning to GACTTGGATGATGATCTCAC, the remaining target (mRNA or protein) (fraction of control) is 0.86.
On the same count and under the same terms, then GCATGGAATCCAGCACAGGA, with 0.69; and GCCGTACATCTTCCACTGCT, with 0.45.
GCCTTGATTTATTTTGGAGT had a remaining target (mRNA or protein) (fraction of control) of 0.92.
For GCTCCTTTCCTGCTGCGGTG, the remaining target (mRNA or protein) (fraction of control) was found to be 0.37.
In the case of GCTCTCATTGGATGCATGTC, the remaining target (mRNA or protein) (fraction of control) was determined as 0.39.
As to GGACTCGTCAGCCCCTTCCT, the remaining target (mRNA or protein) (fraction of control) worked out at 0.16.
For GGATCATTGTGAAGTATTTT, the remaining target (mRNA or protein) (fraction of control) turned out to be 0.84.
GGTACGATCTATATGATCCT registered a remaining target (mRNA or protein) (fraction of control) of 0.8.
Sequence GTACGTCCATTTGTTGAAAT showed a remaining target (mRNA or protein) (fraction of control) of 0.51.
For TAAACCTGACTGCTGCCACC, the remaining target (mRNA or protein) (fraction of control) came to 0.53.
Still for that read-out and setting: then TCCAAATGACTTAAAGGCCA, with 0.68; and TGGACAATCATGGTTTTCAC, with 0.71; and TGTAGGCATCTCTCCCCACT, with 0.42.
Consider TTTGATTCTTTCATATTTTA, for which the remaining target (mRNA or protein) (fraction of control) worked out at 0.82.

A further series concerns the target RIPK2. The following applies: ASO.
In turn, AAAACAGTCACTTACATGCT gave a remaining target (mRNA or protein) (fraction of control) of 0.52.
On to AAATAACAGTCTTGAGCTTT, for which the remaining target (mRNA or protein) (fraction of control) stood at 0.73.
Same read-out and setting: then AAGCCTGGGATTTTAGGGCA, with 0.15; and AGATGGCCTCCCCGTTCATG, with 0.51.
Turning to AGGCTTCTGTCATTTGGTTC, the remaining target (mRNA or protein) (fraction of control) came to 0.3.
ATAAAGCTTTAATACTCACG showed a remaining target (mRNA or protein) (fraction of control) of 0.93.
Take ATACTTCATAAAATCAAATT: the remaining target (mRNA or protein) (fraction of control) is ≥ 1.
In the case of ATCAGGCTGTTGACTTTATT, the remaining target (mRNA or protein) (fraction of control) worked out at 0.53.
Still for that read-out and setting: for ATGCAGCCCTTTGAGAACCA the value was 0.18; for ATGGCCTCCCCGTTCATGGT, 0.51; for ATGTAACTAAATCTAGCTTT, 0.72.
Regarding ATTGCATCTTAGACAAGTAA, the remaining target (mRNA or protein) (fraction of control) is ≥ 1.
On the same count and under the same terms, then ATTTTCATGGAGCTGAGAGG, with 0.68.
In the case of CACCAAGGGCAATTTCATGC, the remaining target (mRNA or protein) (fraction of control) was determined as 0.15.
CATGGTCCCGGGCGCTCAGG: the remaining target (mRNA or protein) (fraction of control) is ≥ 1.
The same measure, in the same setting: then CCACAAGTATTTCCGGGTAA, with 0.36; and CCAGGCTGCAGACGTTCTGA, with 0.3; and CCCGTTCATGGTCCCGGGCG, with 0.6.
For CCTCCCCGTTCATGGTCCCG, the remaining target (mRNA or protein) (fraction of control) was 0.24.
As to CGAACCAGAGCTGACTTCTT, the remaining target (mRNA or protein) (fraction of control) worked out at 0.28.
As for CGTTCATGGTCCCGGGCGCT, the remaining target (mRNA or protein) (fraction of control) stood at 0.76.
Turning to GAGCAGCGGAGTGTGGATGT, the remaining target (mRNA or protein) (fraction of control) turned out to be 0.3.
Still for that read-out and setting: then GATAATTGTCCCTCCTTCTG, with ≥ 1.
GATACGCCCCTGCACGAGCG yielded a remaining target (mRNA or protein) (fraction of control) of 0.65.
Turning to GCAGATGGCCTCCCCGTTCA, the remaining target (mRNA or protein) (fraction of control) stood at 0.84.
Same read-out and setting: then GCAGGTCGGCGAGTTTGTGG, with ≥ 1.
Consider GGCCTCCCCGTTCATGGTCC, for which the remaining target (mRNA or protein) (fraction of control) is 0.45.
On to GTCAGTAGTGTCTAGTAATT, for which the remaining target (mRNA or protein) (fraction of control) was determined as 0.52.
GTGCTCGGTGAGGTATATCA had a remaining target (mRNA or protein) (fraction of control) of 0.18.
Consider TATCCTTTTATGAAACACAT, for which the remaining target (mRNA or protein) (fraction of control) was found to be 0.69.
In turn, TCCCCGTTCATGGTCCCGGG had a remaining target (mRNA or protein) (fraction of control) of 0.24.
TCTATTAAACATTTTAAGAA: the remaining target (mRNA or protein) (fraction of control) was ≥ 1.
For the sequence TCTTTCATGATCAAGTCCCT, the remaining target (mRNA or protein) (fraction of control) amounted to 0.42.
Consider TGAAATTCATTGTCCAATAA, for which the remaining target (mRNA or protein) (fraction of control) amounted to 0.99.
The same measure, in the same setting: then TGCATAGCTATATATATCGT, with 0.77.
On the same count and under the same terms, then TGGTCCCGGGCGCTCAGGCC, with 0.23.
As to TTACATGCTTTTATTTTGAA, the remaining target (mRNA or protein) (fraction of control) came out at 0.5.
For TTATCTGCAAAGGATTGGTG, the remaining target (mRNA or protein) (fraction of control) was 0.45.
Regarding TTCATGGTCCCGGGCGCTCA, the remaining target (mRNA or protein) (fraction of control) amounted to 0.53.
With TTTCCTATGTAGGAGTTCAT, the remaining target (mRNA or protein) (fraction of control) is ≥ 1.

The record behind these values is the OligoGym collection.
